This is an account of results in patent US6849761B2, “Substituted naphthoic acid derivatives useful in the treatment of insulin resistance and hyperglycemia” (Wyeth, priority 2002, dated 2005).

As a reminder, the melting point is the temperature of the solid-liquid transition. For orientation: inhibition means the drop in the measured response relative to a control, in per cent.

Where a name gives a salt, the structure may show the parent alone.

Series [1] deals with T1, human-derived recombinant PTPase-1B (hPTP-1B) (Homo sapiens, UniProt P18031).
T1 sequence (P18031 1-435): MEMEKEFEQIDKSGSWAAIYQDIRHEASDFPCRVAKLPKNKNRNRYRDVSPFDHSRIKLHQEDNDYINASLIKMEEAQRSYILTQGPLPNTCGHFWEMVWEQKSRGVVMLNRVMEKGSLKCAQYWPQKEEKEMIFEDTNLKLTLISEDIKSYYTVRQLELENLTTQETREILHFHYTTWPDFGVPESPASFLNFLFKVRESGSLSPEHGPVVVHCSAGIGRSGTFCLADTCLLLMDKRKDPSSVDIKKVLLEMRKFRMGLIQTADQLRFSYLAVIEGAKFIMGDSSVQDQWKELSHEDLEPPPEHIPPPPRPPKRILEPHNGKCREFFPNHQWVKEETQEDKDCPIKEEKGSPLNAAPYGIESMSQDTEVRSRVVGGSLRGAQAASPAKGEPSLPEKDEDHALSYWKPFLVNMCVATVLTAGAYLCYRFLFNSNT
As to the kind of experiment: PTP-1B inhibition assay (DIFMUP fluorescence kinetic assay). In kind it is biochemical. The settings on record: inhibitor at 40 μM; 20 μM DIFMUP; 1 nM enzyme; calculated from average velocity Va vs control. As for the experimental part:
Measurement of PTPase activity: Compounds are assayed in an enzyme activity-based assay. PTP-1B is known to dephosphorylate phosphopeptides. This assay is a fluorescence intensity based kinetic assay, taking advantage of a non-peptidyl substrate, 6,8-difluoro-4-methylumbelliferyl phosphate (DIFMUP). When excited at 358 nm, the dephosphorylated product of DIFMUP emits at 450 nm.
Examples 1-5 (set forth below) were analyzed as follows. The assay was conducted in black 384-well non-treated plates (Costar#3710). The assay buffer contained 50 mM 3,3-dimethyl glutaric acid, pH 7.0, 48 mM NaCl, 1 mM EDTA. Inhibitors were prepared as DMSO solution and diluted to desired concentrations using 50 mM HEPES, pH 7.4. PTP-1B was diluted to a 2.5 nM working stock using the assay buffer containing additional 0.001% (w/v) hydrogenated Triton X-100. DIFMUP was diluted to 40 μM using the assay buffer. 5 μl of inhibitor was first dispensed into assay plate. In cases of control reactions, 5 μl of the assay buffer was dispensed. This was followed by 25 μl of DIFMUP working stock. The reaction was then initiated by the addition of 20 μl of PTP-1B working stock. The final DIFMUP concentration was 20 μM (˜1.6×Km). The final enzyme concentration was 1 nM and the detergent concentration was 0.0004% (w/v). Typical inhibitor concentrations were from 0.08 to 40 μM. The reaction progress was monitored continuously for 30 min.
Calculations: For data analysis, the last five data points were used to obtain a slope corresponding to the estimated steady-state velocity (Vs), and the overall progress curves were used to obtain the average velocity (Va), by linear regression in both cases. The apparent final potency of inhibitor (Kiapp) was then calculated from Vs data, using the standard hyperbolic inhibition equation. The IC50 values were calculated from Va data using the sigmoidal inhibition equation. % inhibition values were calculated from Va values of inhibitor at 40 μM, and the average Va value of control reactions.

In the case of `COc1ccc2cc(C(=O)O)ccc2c1CNCc1ccc(OC(F)(F)F)cc1` (as salt: salt) [Example 1, 6-Methoxy-5-({[4-(trifluoromethoxy)benzyl]amino}methyl)-2-naphthoic acid], the melting point lay in the range of 235 to 237 °C.

For `COc1ccc2cc(C(=O)O)ccc2c1CNCc1ccc(F)cc1` (as salt: salt) [Example 2, 5-{[(4-Fluorobenzyl)amino]methyl)-6-methoxy-2-naphthoic acid], the melting point was 268 to 270 °C (dec.).

With `COc1ccc2cc(C(=O)O)ccc2c1CNCc1ccc(S(N)(=O)=O)cc1` (as salt: salt) [Example 3, 5-({[4-(Aminosulfonyl)benzyl]amino}methyl)-6-methoxy-2-naphthoic acid], the melting point was 283 to 285 °C (dec.).

`COc1ccc2cc(C(=O)O)ccc2c1CNCc1ccc(N(C)C)cc1` (as salt: salt) [Example 4, 5-({[4-(Dimethylamino)benzyl]amino}methyl)-6-methoxy-2-naphthoic acid]: the melting point was > 215 °C (dec.).

For `COc1ccc2cc(C(=O)O)ccc2c1CNCc1ccc(OC(F)(F)F)cc1` [Example 1, 6-Methoxy-5-({[4-(trifluoromethoxy)benzyl]amino}methyl)-2-naphthoic acid], in series [1], the inhibition at 40 µM is 50%.

With `COc1ccc2cc(C(=O)O)ccc2c1CNCc1ccc(F)cc1` [Example 2, 5-{[(4-Fluorobenzyl)amino]methyl)-6-methoxy-2-naphthoic acid], the inhibition at 40 µM in series [1] is 37%.

`COc1ccc2cc(C(=O)O)ccc2c1CNCc1ccc(S(N)(=O)=O)cc1` [Example 3, 5-({[4-(Aminosulfonyl)benzyl]amino}methyl)-6-methoxy-2-naphthoic acid]: the inhibition at 40 µM in series [1] was 23%.

As for `COc1ccc2cc(C(=O)O)ccc2c1CNCc1ccc(N(C)C)cc1` [Example 4, 5-({[4-(Dimethylamino)benzyl]amino}methyl)-6-methoxy-2-naphthoic acid], the inhibition at 40 µM in series [1] is 34%.

As to `O=C(O)COc1ccc2cc(C(=O)O)ccc2c1CNCc1ccc(OC(F)(F)F)cc1` [Example 5, 6-(Carboxymethoxy)-5-({[4-(trifluoromethoxy)benzyl]amino}methyl)-2-naphthoic acid], the melting point is > 266 °C (dec.). In series [1], the inhibition at 40 µM was 38%.
